The values that follow come from ChEMBL document CHEMBL1201862, “PubChem BioAssay data set” (2004).

Structures are written as SMILES.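 Where inhibition never reached the appropriate level, the endpoint shown equals the highest concentration tested. Otherwise, values were interpolated linearly from a five-concentration, 48-hour dose response in 96-well plates. Abbreviation: GI50, concentration required for 50% inhibition of growth.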 Calls of active or inactive are those of the source. Rule as the data show it: active = GI50 up to about 1.1 µM and inactive = higher.

What all share (assay): DTP human tumour cell line panel, 48 h
For test [1], the system named is BT-549.
The test system of test [2] is CAKI-1.
Test [3] relates to DLD-1.
Test [4] has as its system HCC 2998.
The subject of test [5] is HCT-116.
Test [6] has as its system HCT-15.
In test [7] the test system is HOP-92.
For test [8], the system named is NCI-H226.
The test system of test [9] is NCI-H522.
Test [10] concerns NCI/ADR-RES.
In test [11] the test system is OVCAR-4.
Test [12] deals with OVCAR-5.
Test [13] has as its system OVCAR-8.
Test [14] relates to SF-539.
For test [15], the system named is SN12C.
Test [16] relates to SNB-19.
The test system of test [17] is U-251.
In test [18] the test system is UACC-257.
For test [19], the system named is UACC-62.
Test [20] concerns UO-31.

With `OCc1ccc(-c2ccc(-c3ccc(CO)s3)o2)s1`, the GI50 is 4.04 µM (inactive) in [1]; 0.0116 µM (active) in test [2]; 6.05 µM (inactive) in [3]; 0.394 µM (active) in test [4]; 0.0622 µM (active) in test [5]; 8.09 µM in test [6]. Further, the GI50 in test [7] was 32.6 µM (inactive); in [8], 0.0375 µM (active); in test [9], 29.2 µM (inactive); in test [10], 13.2 µM (inactive); in test [11], 0.212 µM (active); in test [12], 0.02 µM (active). Also, the GI50 in [13] was 12.1 µM (inactive); in test [14], 14.2 µM (inactive); in [15] it was 5.13 µM (inactive); in test [16], 28.8 µM (inactive); in test [17], 0.0646 µM (active); in test [18], 0.0254 µM (active). Also, the values for the concentration for 50% growth inhibition (GI50) in test [19] and in test [20] were 0.0142 µM (active) and 35.5 µM (inactive), respectively.
On to `O=C1C=CC(=O)c2c(O)ccc(O)c21` [NAPHTHAZALIN], for which the GI50 is 2.04 µM (inactive) in test [1]; 1.27 µM (inactive) in [2]; 0.326 µM (active) in test [3]; 4.66 µM (inactive) in test [4]; 0.9 µM (active) in [5]; 0.753 µM in test [6]. In addition, the GI50 in test [7] is 1.69 µM (inactive); in test [8] it was 9.25 µM (inactive); in test [9] it was 0.505 µM (active); in test [10], 1.92 µM (inactive); in test [11], 2.39 µM (inactive); in [12] it was 6.95 µM (inactive). The 50% growth inhibitory concentration (GI50) was 0.91 µM (active) in test [13]; 2.49 µM (inactive) in test [14]; 1.33 µM (inactive) in [15]; 8.41 µM (inactive) in [16]; 5.79 µM (inactive) in [17]; 1.07 µM (active) in test [18]. In addition, the GI50 in [19] was 1.48 µM (inactive); in test [20], 2.11 µM (inactive).
Consider `Cc1c(N)nc([C@H](CC(N)=O)NC[C@H](N)C(N)=O)nc1C(=O)N[C@H](C(=O)N[C@H](C)[C@@H](O)[C@H](C)C(=O)N[C@H](C(=O)NCCc1nc(-c2nc(C(=O)NCCC[S+](C)C)cs2)cs1)[C@@H](C)O)C(OC1OC(CO)C(O)C(O)C1OC1OC(CO)C(O)C(OC(N)=O)C1O)c1c[nH]cn1` (stereo not given in full), for which the GI50 in test [1] is 10.2 µM (inactive); in test [2] it was 0.0379 µM (active); in [3], 14.1 µM (inactive); in [4] it was 9.62 µM (inactive); in [5], 0.415 µM (active); in test [6], 3.27 µM. For the same molecule, the GI50 in test [7] was 0.0841 µM (active); in test [8] it was 0.222 µM (active); in test [9], 0.622 µM (active); in test [10], 0.904 µM (active); in test [11], 4.92 µM (inactive); in [12] it was 2.35 µM (inactive). The GI50 in [13] was 3.26 µM (inactive); in test [14], 0.02 µM (active); in [15], 0.984 µM (active); in test [16], 3.96 µM (inactive); in test [17], 0.834 µM (active); in [18] it was 12 µM (inactive). Besides, the GI50 was 0.451 µM (active) in test [19] and 0.478 µM (active) in [20].
In the case of `COc1cc2c[n+](C)c3c4cc5c(cc4ccc3c2cc1OC)OCO5` [NITIDINE CHLORIDE], the GI50 was 6.5 µM (inactive) in [1]; 2.37 µM (inactive) in [2]; 14.9 µM (inactive) in [3]; 2.07 µM (inactive) in [4]; 5.96 µM (inactive) in test [5]; over 100 µM in [6]. In addition, the GI50 in [7] is 2.07 µM (inactive); in test [8] it was 3.61 µM (inactive); in [9], 0.24 µM (active); in test [10] it was 27 µM (inactive); in test [11] it was 3.45 µM (inactive); in test [12], 1.24 µM (inactive). Also, the GI50 in test [13] was 1.81 µM (inactive); in test [14], 1.78 µM (inactive); in test [15], 0.447 µM (active); in test [16], 0.698 µM (active); in [17], 0.371 µM (active); in test [18] it was 26.1 µM (inactive). Also, the results for the GI50 in test [19] and in test [20] were 1.25 µM (inactive) and > 61.4 µM (inactive), respectively.
Consider `CC1(C)OCN(c2ccc(Cl)cc2)Cn2c1nc1ccccc12`, for which the GI50 in [1] was > 100 µM (inactive); in [3], 7.6 µM (inactive); in [4] it was 3.56 µM (inactive); in test [5], 15.3 µM (inactive); in [6] it was 0.431 µM; in [7], > 80.9 µM (inactive). Moreover, the GI50 in test [8] is > 100 µM (inactive); in [9], 12.6 µM (inactive); in [10] it was 27 µM (inactive); in [11] it was 51.4 µM (inactive); in [12], > 100 µM (inactive); in [13], 69 µM (inactive). Also, the GI50 in test [14] is 6.5 µM (inactive); in [15] it was 70.5 µM (inactive); in test [16], > 71.3 µM (inactive); in test [17], 22.3 µM (inactive); in test [18] it was 39.1 µM (inactive); in test [19] it was 1.41 µM (inactive). Also, the GI50 in test [20] was 9.79 µM (inactive).
Turning to `CCCCC1(OC(=O)CCC(=O)O)CCC2(CCC(C)C(C/C=C(C)/C=C/C(O)C(C)/C=C/C(=O)O)O2)OC1CC/C(C)=C/C(=O)O` (stereo not given), the GI50 in [2] is 4.14 µM (inactive); in test [3], 3.25 µM (inactive); in test [4], 3.33 µM (inactive); in [5], 6.19 µM (inactive); in test [6], 3.45 µM; in test [7], 1.67 µM (inactive). In addition, the GI50 in test [8] is 2.14 µM (inactive); in [9] it was 2.77 µM (inactive); in [11] it was 2.1 µM (inactive); in [12], 3.94 µM (inactive); in [13], 2.84 µM (inactive); in test [14], 1.77 µM (inactive). Further, the GI50 in [15] is 2.77 µM (inactive); in test [16], 3.11 µM (inactive); in test [17], 4.35 µM (inactive); in test [18], 1.55 µM (inactive); in test [19], 0.971 µM (active); in [20] it was 2.97 µM (inactive).
In the case of `COc1cc2cnc3c4cc(O)ccc4ccc3c2cc1OC`, the GI50 in [2] was > 100 µM (inactive); in test [3], > 100 µM (inactive); in [4] it was 91 µM (inactive); in test [5] it was > 100 µM (inactive); in test [6] it was over 100 µM; in test [7] it was > 100 µM (inactive). Also, the GI50 in [8] was 26.4 µM (inactive); in test [9], 15.6 µM (inactive); in test [11] it was 26.7 µM (inactive); in test [12] it was > 100 µM (inactive); in test [13], 23.6 µM (inactive); in test [14] it was 63 µM (inactive). For the same molecule, the GI50 in test [15] was 35.2 µM (inactive); in test [16], 30.7 µM (inactive); in test [17], 10.8 µM (inactive); in test [18], 56.6 µM (inactive); in [19], 72.4 µM (inactive); in test [20], > 100 µM (inactive).
